Measurements from PubChem BioAssay (NCI).
Where “and” joins values, the source holds several entries; their conditions need not be identical. Equal entries are not always repeated.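 Dose response: 5 concentrations. Exposure: 48 h. Format: 96-well plates. Endpoint: linear interpolation; highest concentration if not reached. GI50 is the concentration that inhibits growth by half. TGI is the concentration that stops growth completely.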 Where a SMILES comes first, the peptide text is derived from it. [ ]: non-standard residue; d: D form. The star is where a group is joined. NMeF = CN[CH](Cc1ccccc1)C(=O)O; NMeV = CN[CH](C(=O)O)C(C)C; Boc = CC(C)(C)OC(=O)*

Legend:
Test in all cases: growth of human tumour cells (NCI), 48 h
A549 NSCLC = system: A549 NSCLC
ACHN renal = system: ACHN renal
IGROV1 ovarian = system: IGROV1 ovarian
MALME-3M melanoma = system: MALME-3M melanoma
OVCAR-8 ovarian = system: OVCAR-8 ovarian
SF-539 CNS = system: SF-539 CNS
SK-MEL-2 melanoma = system: SK-MEL-2 melanoma
SR leukemia = system: SR leukemia
EKVX NSCLC = system: EKVX NSCLC
HOP-62 NSCLC = system: HOP-62 NSCLC

Structure (SMILES)	TGI (A549 NSCLC) [µM]	TGI (ACHN renal)	TGI (IGROV1 ovarian) [µM]	TGI (MALME-3M melanoma) [µM]	TGI (OVCAR-8 ovarian) [µM]	TGI (SF-539 CNS) [µM]	TGI (SK-MEL-2 melanoma) [µM]	TGI (SR leukemia) [µM]	GI50 (A549 NSCLC) [µM]	GI50 (ACHN renal)	GI50 (EKVX NSCLC) [µM]	TGI (EKVX NSCLC) [µM]	GI50 (HOP-62 NSCLC) [µM]	TGI (HOP-62 NSCLC) [µM]	GI50 (IGROV1 ovarian) [µM]	GI50 (OVCAR-8 ovarian) [µM]	GI50 (SK-MEL-2 melanoma) [µM]	GI50 (SR leukemia) [µM]	GI50 (SF-539 CNS) [µM]	GI50 (MALME-3M melanoma) [µM]
OC[C@H]1CCCC1O (some centres not stated)	> 100	> 100 µM	> 100	> 100	> 100	> 100	> 100	> 100												
COc1ccc(-c2n[nH]nc2-c2cc(OC)c(OC)c(OC)c2)cc1	38.3	> 100 µM	9.23		22		43.4	> 47.9	< 0.01	0.0169 µM	< 0.01	29.6	< 0.01	> 73.2	< 0.01	< 0.01	< 0.01	< 0.01		
Cc1ccn2c(c1)nc1nc3ccccc3nc12	> 100	> 100 µM	> 100		> 100	> 100	> 100	> 100				> 100		> 100						
COc1ccccc1CNCCCN1C(=O)c2ccc3c4c(ccc(c24)C1=O)C(=O)N(CCCOCCCCOCCCN)C3=O	2.82	2.57 µM	3.67		2.08	3.3	4.04	3.87	1.22	1.21 µM	1.19	2.52	1.32	2.73	1.25	0.473	1.83	0.348	1.68	
CC1CC[C@]2(C(=O)O)CCC3(C)C(=CC(=O)C4[C@@]5(C)CCC(=O)C(C)(C)C5CC[C@]43C)[C@@H]2[C@H]1C (some centres not stated)	> 100	> 100 µM	> 100	80.3	> 100	44.1		37.5				> 100		46.3						
CC(C)n1nc(-c2cc3cc(O)ccc3[nH]2)c2c(N)ncnc21	2.67	5.18 µM	0.774	0.265	3.21	2.18	1.95	2.93	0.313	0.224 µM			0.393	3.56	0.0945	0.314	0.229	0.191	0.309	0.0269
O=S(=O)(N=S(c1ccccc1)c1ccccc1)c1ccccc1	> 100	> 100 µM		> 100	> 100	> 100		> 100				> 100		> 100						
COC(=O)/C(=N\Nc1nnc(C)n1N)C(C#N)c1ccc(Cl)cc1 (configuration not stated)	> 100	> 100 µM	> 100	> 100	> 100	> 100	> 100					> 100		> 100						
O=C1CCN2C(=O)CCN12	> 100	> 100 µM		> 100	> 100		> 100	> 100				> 100		> 100						
NCCCCN(CCCN)/[N+]([O-])=N\O	> 100	> 100 µM	> 100	> 100	> 100	> 100	> 100	> 100						> 100						
CC(=O)[O-].CCN(CC)c1ccc(C=NCCN=Cc2ccc(N(CC)CC)cc2[O-])c([O-])c1.[Mn+3]	> 100	> 100 µM	80.3	35.2	57	37.4		67.4	34.5	> 100 µM	39.6	> 100	19.2	39.1	29.6	24.5		22.3	20.9	18.4
Cn1c2c(c3ccccc31)CC1c3c(c4ccccc4n3C)CC21 (configuration not stated)	> 100	> 100 µM	> 100	> 100	> 100	> 100		> 100				> 100		> 100						
O=C1OC(c2ccccc2)=N/C1=C\c1cccc2ccccc12	> 100	> 100 µM	> 100	> 100	> 100	> 100	> 100	> 100						> 100						
Cc1cccc(NC(=O)C(=O)C(C(=O)c2ccc3ccccc3c2)C2OC(=O)c3ccccc32)c1C (configuration not stated)	69.2	81.4 µM	57.7	21.7	71.8	22.3	29.8					77.8		24.7						
Cc1ccc(C2=C(c3ccccc3)C(Br)(c3ccc(C)cc3)C(c3ccccc3)=C2c2ccc(C)cc2)cc1	> 100	> 100 µM	> 100	> 100	> 100	> 100	> 100					> 100		> 100						
CC(C)C(NC(=O)OC(C)(C)C)C(=O)N(C)C(Cc1ccccc1)C(=O)N(C)C(C(=O)O)C(C)C (stereo not drawn) (Boc-Val-[NMeF]-[NMeV]-OH; configuration not given here)	> 100	71 µM and > 100 µM	> 100	> 100	> 100	> 100		> 100		23.1 µM and > 100 µM		> 100		> 100						
COc1ccc(Nc2c3ccccc3nc3occc23)cc1	41.6	> 80.6 µM	> 100	34.3	> 100	20.8		> 100	3.26	9.95 µM	18.1	> 52.7	5.42	30.1	7.66	5.71		> 100	2.84	2.31
O=C1OC(C(O)CO)C(=O)C1=O (configuration not stated)	> 10000	> 10000 µM	5170	4870	> 10000	5440	> 10000	> 10000	9790	2860 µM			3720	8570	2350	5270	> 10000	3860	2490	2070
